We go through one compound from patent US10196606B2, “Method of producing multipotent stem cells” (FLINDERS UNIVERSITY OF SOUTH AUSTRALIA, priority 2011, dated 2019).

Holding throughout (format): cell-based
Assay [1] deals with human umbilical cord fibroblast (HUCF) cells. In words: Immunocytochemistry of cells induced from HUCF. As for the experimental part:
Cells were induced with small molecules (BIX0124 alone or BIX0125 and RG108 in combination) as described above, with cells cultured in HIPS media at Days 2 and 3. Cells were cultured in NSC media for 0, 2 or 6 days as detailed below. Prior to immunofluorescence staining, cells were dissociated with Tryple-E enzyme as described above, and then incubated overnight at low density on poly-D-lysine coated coverslips in HIPS media prior to immunofluorescence staining.
Cells were then washed with PBS and then fixed with 4% paraformaldehyde for 10 min. After washing twice with PBS, cells were permeabilised with 0.1% Triton X-100 for 20 min. Cells were then washed twice and blocked in blocking buffer (a solution of PBS containing 1% FBS and 4% BSA) for 1 hour. Primary antibodies were diluted in blocking buffer in the following dilutions: anti-Sox2 (Millipore, 1:200, mouse), anti-SSEA-1 (Santa Cruz Biotechnology, 1:200, mouse), anti-glial fibrillary acidic protein (GFAP; Dako, 1:400, rabbit), anti-Map2 (Osenses, 1:1000, rabbit), anti-Olig2 (Osenses, 1:1000, rabbit), anti-Alpha-tubulin (Sigma, 1:1000, mouse), anti-neural/glial 2 (Abeam, 1:200), anti-nestin (DHSB, 1:1000), anti-Tuj1 Sigma, 1:300 and applied to the cells for 1 hour at room temperature or overnight at 4° C. Cells were washed three times with PBS and then secondary fluorescent antibodies (1:1000, Cy3 or Alexa-488) and counterstain with 10 μg/ml DAPI were applied for 1 hour at room temperature.
In one experiment, HUCF cells were induced as follows: At passage 17, HUCF cells were negatively selected for p75-NTR and then induced using BIX01294 alone in HIPS media for one day and HIPS media (no small molecules) for two days followed by culture in NSC media for 6 days. Meanwhile control HUCF cells at passage 17 were negatively selected for p75-NTR cells, and then passaged another 5 times. Cells were then stained with mouse anti-p75-NTR-FITC (Biosensis, 1:6, mouse) and counterstained with DAPI as described above.

Assay [2] deals with mouse embryonic fibroblasts (MEF). Put plainly: Induction of SMINS cells / ALP-positive neurospheres from MEF, 6 induction cycles. The note with it: withdrawal of individual small molecules from the combination. The method, then: (§1) Mouse embryonic fibroblasts (MEF) and mouse adult tail-tip fibroblasts (TTF) were isolated from C57/BL6 mice as described previously^2. Both cell types (ie MEF and TTF) were cultured in MEF medium (Dulbecco's Modified Eagle Medium (DMEM; Invitrogen Corporation, Carlsbad, Calif., United States of America) containing 10% Fetal Bovine Serum (FBS; Thermo Fisher Scientific, Waltham, Mass., United. States of America), 50 units/ml penicillin and 50 μg/ml streptomycin (Invitrogen)). Native NS cells were cultured from mouse brain at E12-E14 as positive controls in neural stem (NS) cell media.
(§2) 35 mm tissue culture dishes were coated with feeder cells (fibroblasts cultured from mouse embryo and seeded at 1.4×10^5 cells per 35 mm tissue culture dish) before induction. The MEF (passage 3) or TTF were seeded at 1.4×10^5 per 35 mm feeder cell-coated dish. The cells were induced in 6 cycles. […] The cells were then cultured in SCM in the absence of the small molecules for the next two days. Then, the cycle was repeated 5 times. Next, the cells were passaged and suspended in a drop of […] containing at least 50 cells for two days. Finally, the cells were cultured in the neural stem (NS) cell medium (DMEM/F12 (Invitrogen) supplemented with B-27 (1:50; Gibco Inc, Billings, Mont., United States of America), 50 units ml^−1 penicillin, 50 μg ml^−1 streptomycin, 8 mM HEPES buffer, 20 ng ml^−1 epidermal growth factor (EGF), 10 ng ml^−1 basic fibroblast growth factor (bFGF) for two weeks.
(§3) ES culture medium (also referred to as SCM herein) was added to NS and SMINS cells overnight. Alkaline phosphatase staining was carried out according to the manufacturer's protocol (Hoffman-La Roche, Basel, Switzerland). For the immunofluorescence staining, cells were washed with phosphate buffered saline (PBS) and then fixed with 4% paraformaldehyde for 10 min. After washing twice with PBS, the cells were permeabilised with 0.1% Triton X-100 for 20 min. Cells were then washed twice and blocked in blocking buffer (a solution of PBS containing 1% FBS and 4% bovine serum albumin (BSA)) for 1 hour. […]

The test system of assay [3] is human umbilical cord fibroblast (HUCF) cells. In words: RT-PCR of cells induced from HUCF. The note with it: immediately after induction, prior to culture in NSC media. As for the experimental part:
mRNA was extracted from cells induced using BIX01294 and RG108 in combination or BIX01294 alone. A cell lysate from SKSY5Y cells (a neuroblastoma cell line) was used as a positive control, and HUCF cells at passage 17 following p75-NTR negative selection was used as a negative control. RT-PCR was performed as described in Example 1 for expression of typical neural stem cell genes GFAP, Sox2, Olig2, Nestin, and pluripotent stem cell genes Oct4 and Nanog, and loading control gene GAPDH using the primers described in Example 1.

Assay [4] deals with mouse adult tail-tip fibroblasts (TTF). In words: Induction of SMINS cells / ALP-positive neurospheres from TTF. The method, then: as §1, §2, §3

Turning to `COc1cc2nc(N3CCCN(C)CC3)nc(NC3CCN(Cc4ccccc4)CC3)c2cc1OC.Cl.Cl.Cl.O` [BIX01294, 2-(hexahydro-4-methyl-1H-1,4-diazepin-1-yl)-6,7-dimethoxy-N-[1-(phenylmethyl)-4-piperidinyl]-4-quinazolinamine trihydrochloride hydrate], in assay [1] (6 days in NSC media), the “expression of neural stem cell marker nestin” value is recorded as “additionally express the neural stem cell marker nestin” and the “p75-NTR staining versus control p75-NTR negative HUCF” value is “marked upregulation”. For the same compound, the “expression of NG2, Olig2, GFAP and Tuj1” value in assay [1] (after culture in NSC media) is listed as “some BIX01294 induced cells express”. Also, the “expression of Sox2 and SSEA-1 (immunofluorescence)” value in assay [1] (culture in NSC media for 0 or 6 days) was “clearly expressed Sox2 and SSEA-1”. Also, in assay [2], the “essential for generation of SMINS-MEF cells” value is “required for the induction”. In assay [3], the “Sox2 expression (RT-PCR)” value is given as “expressed Sox2 immediately after induction”. For the same compound, the “ALP-positive neurosphere produced from TTF” value in assay [4] is reported as “No”.
